# Measured values taken from article PMC11063903, “Engineering a human P2X2 receptor with altered ligand selectivity in yeast” (The Journal of Biological Chemistry, 2024).
# Numbering of substitutions follows the chain as printed.
# What was measured:
# P2X2 F301W+A304W = biological target: T1, P2X2 F301W+A304W (Homo sapiens, UniProt Q9UBL9, A304W/F301W); experiment: Fast GCaMP-mScarletI assay in yeast, P2X2 F301W+A304W; assay type: cell-based; conditions: for Bottom, best fit value / Hillslope, best fit value / Top, best fit value: four-parameter logistic fit of ΔF/ΔT
# T1 construct: expressed in transfected cells; host or cells: S. cerevisiae BY4741 background
# T1 sequence (Q9UBL9 1-471 F301W/A304W): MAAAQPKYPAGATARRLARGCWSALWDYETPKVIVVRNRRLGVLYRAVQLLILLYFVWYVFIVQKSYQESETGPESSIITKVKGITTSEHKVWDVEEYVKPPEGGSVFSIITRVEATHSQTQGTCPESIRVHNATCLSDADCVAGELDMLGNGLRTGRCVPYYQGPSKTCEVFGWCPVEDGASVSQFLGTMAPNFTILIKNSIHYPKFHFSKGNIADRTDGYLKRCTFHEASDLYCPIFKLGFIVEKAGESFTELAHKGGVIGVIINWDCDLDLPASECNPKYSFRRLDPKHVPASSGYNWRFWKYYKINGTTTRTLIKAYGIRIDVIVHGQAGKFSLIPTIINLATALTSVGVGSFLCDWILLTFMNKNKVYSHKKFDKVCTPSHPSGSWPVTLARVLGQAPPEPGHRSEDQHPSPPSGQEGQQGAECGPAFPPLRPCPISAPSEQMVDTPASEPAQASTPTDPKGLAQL
# Procedure: (§1) Figure 4 Unnatural-ligand gating in LBD libraries.A, WT P2X2 was tested with 1 mM ATP, 500 μM AMP-PNP, and compared to ATP with the broken receptor (K81C K83C) control with 1 mM ATP in the fast GCaMP-mScarletI assay (n = 3). […] B, heat map summarizing AMP-PNP signaling (ΔF/ΔT, fast GCaMP-mScarletI assay) in the site-saturation libraries (n = 2–3). All values are normalized to WT P2X2 with saturating amounts of AMP-PNP (500 μM) and therefore represent low signal (ΔF/ΔT) compared to the ATP ligand. C, F301W, F303Y, and A304W were combinatorially combined and tested against the WT, K81C K83C broken P2X2, and the single mutant clones with both ATP (1 mM, black) and AMP-PNP (500 μM, pink). […] Values here represent signal onset and are not normalized to a positive control (n = 2–5). D–K, dose response of each P2X variant with both ATP (black) and AMP-PNP (pink) in the fast GCaMP-mScarletI assay (n = 3). Statistics were performed via one-way ANOVA with Dunnett’s multiple comparisons with to the “broken” K81C K83C negative control. ∗ represents a p value ≤0.05, ∗∗ is p ≤ 0.01, and ∗∗∗ is p ≤ 0.001.
# (§2) The combined mutations were synergistic, with F303Y + A304W having a predicted additive effect of ca. Ten-fold, relative to the 73-fold seen.
# (§3) GCaMP assays were performed as follows. P2X2 GCaMP strains were designed with a bi-cistronic reporter, in which the GCaMP protein was followed by a 2A peptide and a mScarletI reporter ([53]). The co-translated mScarletI was designed to act as a control for plasmid loss, GCaMP breakage via nonsense mutation, and contamination. […] P2X2-GCaMP strains were cultured and induced as previously described. Samples were induced for 24 h to allow for the accumulation of the mature GCaMP protein. Cells were washed three times in 0.1 M MES/Tris buffer and resuspended with MES/Tris with supplemental calcium. Cells were loaded onto a black, clear bottom microplate and imaged on a FlexStation3 plate reader. Samples were imaged in “flex” mode. Samples were imaged for 48 s at an interval of 1.6 s. Fluorescence was measured with an excitation at 485 nm, and emission 525 nm. At the 21 s mark, 100 μl ligand solution was transferred to the cells. For strains with mScarlet, fluorescence was read with excitation 570 nm/emission 610 nm. Slopes were calculated from the last 6 points of measurement and were normalized to the positive control samples. Any replicate in which the mScarlet value was measured to be over 2 standard deviations less than the mean for that set was discarded from further analysis.
# (§4) For multiple comparisons in the site-saturation screening data, One-way ANOVA with Dunnett’s multiple comparisons test was performed where every sample was compared to the “broken” negative control. Significance was plotted where ∗ represents a p value ≤0.05, ∗∗ is p ≤0.01, and ∗∗∗ is p ≤0.001. Dose–response curves were fit with nonlinear regression software using a four-parameter logistic curve. All statistics were calculated and plotted in Graphpad Prism software.
# P2X2 F303Y+A304W = biological target: T2, P2X2 F303Y+A304W (Homo sapiens, UniProt Q9UBL9, A304W/F303Y); experiment: Fast GCaMP-mScarletI assay in yeast, P2X2 F303Y+A304W; assay type: cell-based; conditions: for Bottom, best fit value / Hillslope, best fit value / Top, best fit value: four-parameter logistic fit of ΔF/ΔT
# T2 construct: expressed in transfected cells; host or cells: S. cerevisiae BY4741 background
# T2 sequence (Q9UBL9 1-471 F303Y/A304W): T1 sequence (Q9UBL9 1-471 F301W/A304W) with W301F, F303Y
# Procedure: as §1, §2, §3, §4
# [1] = four-parameter logistic fit, n = 3, unit inferred, unit M, read-out: EC50, best fit value
SMILES,improvement compared to the WT channel (rate of signal onset ΔF/ΔT) (P2X2 F301W+A304W; at 500 μM AMP-PNP) [fold],"Bottom, best fit value (P2X2 F301W+A304W; n = 3)","Hillslope, best fit value (P2X2 F301W+A304W; n = 3)","Top, best fit value (P2X2 F301W+A304W; n = 3)","increased intracellular calcium amplitudes compared to the WT receptor (P2X2 F303Y+A304W; AMP-PNP, abstract)",increased signal compared to the WT channel (rate of signal onset ΔF/ΔT) (P2X2 F303Y+A304W; at 500 μM AMP-PNP) [fold],"Bottom, best fit value (P2X2 F303Y+A304W; n = 3)","Hillslope, best fit value (P2X2 F303Y+A304W; n = 3)","Top, best fit value (P2X2 F303Y+A304W; n = 3)",EC50 (P2X2 F301W+A304W; [1]) [µM],EC50 (P2X2 F303Y+A304W; [1]) [µM]
Nc1ncnc2c1ncn2[C@@H]1O[C@H](COP(=O)(O)OP(=O)(O)NP(=O)(O)O)[C@@H](O)[C@H]1O [AMP-PNP],24,-0.492,1.649,81.84,over 100 fold,73,1.254,2.515,114.4,,
Nc1ncnc2c1ncn2[C@@H]1O[C@H](COP(=O)(O)OP(=O)(O)OP(=O)(O)O)[C@@H](O)[C@H]1O [ATP],,-5.28,1.07,207.50,,,1.98,3.50,150.00,20.7,6.67
